# Data published in US12428681B2, “Markers of totipotency and methods of use” (AGENCY FOR SCIENCE, TECHNOLOGY AND RESEARCH, priority 2017, dated 2025).
# How the values were obtained:
# Type in all cases: cell-based, mouse
# [1] = test system: NELFA-Strep-HA-P2A-EGFP mESCs; assay: Flow cytometry of NELFA^high subpopulation in NELFA reporter mESCs
# Method: (§1) Unless otherwise stated, all mESC lines were cultured in serum-containing ESC medium containing Knockout DMEM, 15% FCS, L-Glutamine, non-essential amino acids, penicillin/streptomycin, 2-mercaptoethanol and supplemented with LIF, 1 μM PD0325901 and 3 µM CHIR99021 (2i′). For serum-free ‘naïve’ culture condition, mESCs were grown in N2B27 medium supplemented with LIF and 2i. For 2-DG experiments, ESCs were grown in serum-containing ESC medium with 4 mM 2-DG (Sigma; D8375) for up to 4 days. For MYC inhibitor treatment, ESCs were grown in serum-containing ESC medium with […] MYC inhibitor, 10058-F4 (Abcam), for 3 days.
# Mouse ES cells are grown in standard culture medium containing 4 mM of 2-DG inhibitor for 4 days, at 37° C. with 5% CO2. Culture medium containing 2-DG is changed every day during the induction. […] In a second system, where NELFA is under the control of a Dox inducible promoter, the expression is induced by culturing the ES cells with culture medium containing 0.4 μg/mL of Doxycycline for 16 hours at 37° C. with 5% CO2.
# For NELFA-StrepHA-P2A-EGFP reporter ESC line, a donor vector harboring a Strep-HA-P2A-EGFP cassette flanked by NELFA left and right homology arms (826 bp and 924 bp respectively) was co-transfected with the CRISPR-Cas9 sgRNA cloning vector, pX458, containing the Nelfa sgRNA sequence ([…])(SEQ ID NO: 1). Positive transfectants were GFP-sorted and targeted single clones validated by genotyping.
# FACSAria Cell Sorter (BD Biosciences) was used to quantify the proportion of EGFPpositive and EGFP-negative cells from the reporter mESC lines. The Moflow sorter was used to sort EGFP-positive and EGFP-negative cells for RNA-seq and NoME-seq studies.
# NELFA reporter mESCs [2] = assay: RNA-seq transcriptomic profiling of unsorted 2-DG-treated NELFA reporter mESCs; conditions: adjusted p-value≤0.01 and fold-change≥2
# Method: as §1, with “3 days. […]” for “3 days.”
# Single- and Paired-end raw sequencing reads were trimmed with Trim Galore (v0.4.2_dev; www.bioinformatics.babraham.ac.uk/projects/trim_galore/) with parameters: --trim-n (single-end, NELFA reporter mESCs) or -paired (paired-end, Doxinducible NELFA-EGFP and 2DG-treated NELFA reporter mESCs). Cleaned reads were then mapped to the mouse GRCm38 reference genome, guided by the vM9 gene model from the GENCODE project using the RSEM pipeline (v1.1.11). […] Reads mapping and quantification of individual repetitive element expression were carried out by using the RepEnrich pipeline, which takes a two-step approach. Briefly, reads were mapped to the mouse genome (mm10) by Bowtie (v1.1.2), and separated into multiple-mapped and uniquely mapped reads. […]
# NELFA reporter mESCs [3] = assay: Immunofluorescence for 2C-like markers and H1-mCherry in NELFA reporter mESCs
# Method: as §1
# For generation of histone H1-mCherry stable mESCs, mouse H1e-mCherry fusion DNA sequence was ordered as a Gblock from IDT, amplified and inserted into the expression plasmid, pCAG-IRES-hygromycin. The pCAG-H1-mCherry-IRES-hygromycin plasmid was linearized with FspI and transfected into both NELFA-StrepHA-P2A-EGFP reporter mESCs and Dox-inducible pTRE-NELFA-StrepHA mESCs. Transfected cells were selected with hygromycin B (150 μg/ml) for 4 days before single colony sub-cloning.
# Briefly mESCs were grown on gelatin-coated imaging dishes, fixed in 4% PFA for 10 min at room temperature, permeabilized and blocked in 0.1% TRITON™ X-100/1% BSA for 30 min. Cells were incubated in primary antibodies overnight at 4° C. followed by three washes in blocking buffer. […]
# mESCs = assay: RT-qPCR of 2C-relevant genes in mESCs; conditions: 2-DG stimulation alone
# Method: Unless otherwise stated, all mESC lines were cultured in serum-containing ESC medium containing Knockout DMEM, 15% FCS, L-Glutamine, non-essential amino acids, penicillin/streptomycin, 2-mercaptoethanol and supplemented with LIF, 1 μM PD0325901 and 3 µM CHIR99021 (2i′). For serum-free ‘naïve’ culture condition, mESCs were grown in N2B27 medium supplemented with LIF and 2i. For 2-DG experiments, ESCs were grown in serum-containing ESC medium with 4 mM 2-DG (Sigma; D8375) for up to 4 days. For MYC inhibitor treatment, ESCs were grown in serum-containing ESC medium with […] MYC inhibitor, 10058-F4 (Abcam), for 3 days. siRNAs were purchased from GE Dharmacon and Qiagen and transfected into mESCs using Lipofectamine RNAiMAX according to manufacturer's instructions. Both forward and reverse transfections were carried out. The final concentration of siRNA used was 40 nM per transfection and the effect of knockdown analyzed at 72 h. 0.5-1 μg of total RNA was used as input for cDNA preparation with the SensiFAST cDNA synthesis kit (Bioline; 65054). Reverse transcription was carried out with standard cycling condition as per manufacturer's instructions. […] Relative gene expression fold change was calculated using the delta delta CT method and statistical significance was assessed using a student's T-test.
Structure (SMILES),"change in NELFA^high population (in words) ([1]; NELFA reporter mESCs, 64 µM MYC inhibitor 10058-F4, 3 days)","increase in the NELFA^high subpopulation following 2-DG treatment ([1]; NELFA reporter mESCs, conventional culture conditions, 4 mM 2-DG, 4 days)",change in Nelfa^high ESC subpopulation (in words) ([1]; addition of 2-DG to Nelfa reporter ESCs),number of genes upregulated after 2-DG treatment (NELFA reporter mESCs [2]) [genes],expression of MERVL family of retrotransposons and Zscan4 by immunofluorescence (NELFA reporter mESCs [3]; 2-DG-treated NELFA-positive mESCs),"H1 localization on heterochromatin in NELFA^high mESCs (NELFA reporter mESCs [3]; NELFA-EGFP reporter mESCs stably expressing H1-mCherry, following 2-DG treatment)",induction of Gata3 by RT-qPCR (mESCs)
CCc1ccc(/C=C2/SC(=S)NC2=O)cc1 [10058-F4],no increase,–,–,–,–,–,–
"O=CC[C@@H](O)[C@H](O)[C@H](O)CO [2-DG, 2-deoxy-D-glucose]",–,up to 8 fold,prominent increase,175,upregulation,clear displacement,not observed
